According to ChEMBL document CHEMBL5230106, “The wide-spectrum antimicrobial effect of novel N-alkyl monoquaternary ammonium salts and their mixtures; the QSAR study against bacteria” (Eur J Med Chem, 2020):
Calls of active or inactive are those of the source. The calls are words filed in the database; no cut-off is given here.

Assays:
[1] = tested on: Clostridioides difficile; test: Antibacterial activity against Clostridium difficile at 0.5 % measured after 8 mins by broth microdilution analysis; format: functional, organism-based
[2] = tested on: CHO-K1; test: Cytotoxicity against CHO-K1 cells assessed as reduction in cell viability incubated for 24 hrs by MTT assay; format: toxicity, cell-based, Cricetulus griseus; settings: chinese hamster, cho-k1, 24 h
[3] = tested on: Penicillium chrysogenum; test: Antifungal activity against Penicillium chrysogenum EXF-1818 assessed as inhibition of fungal growth at 100 uM measured after 72 hrs; format: functional, organism-based
[4] = tested on: Aspergillus versicolor; test: Antifungal activity against Aspergillus versicolor EXF-8692 assessed as inhibition of fungal growth at 100 uM measured after 72 hrs; format: functional, organism-based
[5] = tested on: Aspergillus niger; test: Antifungal activity against Aspergillus niger EXF-10185 assessed as inhibition of fungal growth at 100 uM measured after 72 hrs; format: functional, organism-based
[6] = tested on: Fusarium dimerum; test: Antifungal activity against Fusarium dimerum EXF-8427 assessed as inhibition of fungal growth at 100 uM measured after 72 hrs; format: functional, organism-based
[7] = tested on: Human alphaherpesvirus 3; test: Antiviral activity against Varicella zoster-virus assessed as reduction factor at 0.005 % measured for 5 mins by crystal violet staining based microscopic analysis; format: functional

Structure (SMILES)	Activity [2]	fold change (FC) [7]	also measured
CCCCCCCCCCCC[N+]1(CCO)CCOCC1.[Br-]	Toxic		Activity [1]: Active
CCCCCCCCCCCCCC[N+]1(CCO)CCOCC1.[Br-]	Toxic		
CCCCCCCCCCCCCCCC[N+]1(CCO)CCOCC1.[Br-]	Toxic		
CCCCCCCCCCCC[N+](C)(C)CCCCCCCC			Activity [1]: Active; Activity [3]: Active; Activity [4]: Active; Activity [5]: Active; Activity [6]: Active
CCCCCCCCCCCCCCCC[N+](C)(C)CCCCCCCC.[Br-]		3.83	
CCCCCCCC[N+](C)(CCCCCCCC)Cc1ccccc1.[Br-]		3.84	
CCCCCCCCCCCCCCCC[n+]1cccc(OC)c1.[Br-]		4.68	
